Values of other authors in PMC9851200, “Multiparameter phenotypic screening for endogenous TFEB and TFE3 translocation identifies novel chemical series modulating lysosome function” (Autophagy, 2022).

Legend:
Parameters in all cases: method as in original PKIS2 published data
[1] = biological target: kinases (KINOMEscan panel) (Homo sapiens, UniProt P42685); conditions: kinase FRK; Published KINOMEscan; ref original PKIS2 published data; cited from earlier work
[2] = biological target: T1, kinases (KINOMEscan panel) (Homo sapiens, UniProt Q8IW41); conditions: MAPKAPK5; Published KINOMEscan; ref original PKIS2 published data; cited from earlier work
T1 sequence (Q8IW41 1-473): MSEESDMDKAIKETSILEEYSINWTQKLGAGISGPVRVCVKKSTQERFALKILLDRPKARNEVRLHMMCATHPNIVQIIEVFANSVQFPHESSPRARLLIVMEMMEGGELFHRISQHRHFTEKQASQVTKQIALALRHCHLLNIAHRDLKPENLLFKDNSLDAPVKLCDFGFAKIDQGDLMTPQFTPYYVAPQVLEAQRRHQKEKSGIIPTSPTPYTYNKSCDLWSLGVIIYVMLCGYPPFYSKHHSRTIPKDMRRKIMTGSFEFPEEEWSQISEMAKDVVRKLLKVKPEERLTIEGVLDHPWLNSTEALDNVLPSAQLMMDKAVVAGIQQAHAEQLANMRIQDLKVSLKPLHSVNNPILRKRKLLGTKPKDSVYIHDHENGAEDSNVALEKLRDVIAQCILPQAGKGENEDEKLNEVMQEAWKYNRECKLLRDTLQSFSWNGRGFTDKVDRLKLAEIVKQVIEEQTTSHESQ

[3] = biological target: T2, kinases (KINOMEscan panel) (Homo sapiens, UniProt Q8TD19); conditions: NEK9; Published KINOMEscan; ref original PKIS2 published data; cited from earlier work
T2 sequence (Q8TD19 1-979): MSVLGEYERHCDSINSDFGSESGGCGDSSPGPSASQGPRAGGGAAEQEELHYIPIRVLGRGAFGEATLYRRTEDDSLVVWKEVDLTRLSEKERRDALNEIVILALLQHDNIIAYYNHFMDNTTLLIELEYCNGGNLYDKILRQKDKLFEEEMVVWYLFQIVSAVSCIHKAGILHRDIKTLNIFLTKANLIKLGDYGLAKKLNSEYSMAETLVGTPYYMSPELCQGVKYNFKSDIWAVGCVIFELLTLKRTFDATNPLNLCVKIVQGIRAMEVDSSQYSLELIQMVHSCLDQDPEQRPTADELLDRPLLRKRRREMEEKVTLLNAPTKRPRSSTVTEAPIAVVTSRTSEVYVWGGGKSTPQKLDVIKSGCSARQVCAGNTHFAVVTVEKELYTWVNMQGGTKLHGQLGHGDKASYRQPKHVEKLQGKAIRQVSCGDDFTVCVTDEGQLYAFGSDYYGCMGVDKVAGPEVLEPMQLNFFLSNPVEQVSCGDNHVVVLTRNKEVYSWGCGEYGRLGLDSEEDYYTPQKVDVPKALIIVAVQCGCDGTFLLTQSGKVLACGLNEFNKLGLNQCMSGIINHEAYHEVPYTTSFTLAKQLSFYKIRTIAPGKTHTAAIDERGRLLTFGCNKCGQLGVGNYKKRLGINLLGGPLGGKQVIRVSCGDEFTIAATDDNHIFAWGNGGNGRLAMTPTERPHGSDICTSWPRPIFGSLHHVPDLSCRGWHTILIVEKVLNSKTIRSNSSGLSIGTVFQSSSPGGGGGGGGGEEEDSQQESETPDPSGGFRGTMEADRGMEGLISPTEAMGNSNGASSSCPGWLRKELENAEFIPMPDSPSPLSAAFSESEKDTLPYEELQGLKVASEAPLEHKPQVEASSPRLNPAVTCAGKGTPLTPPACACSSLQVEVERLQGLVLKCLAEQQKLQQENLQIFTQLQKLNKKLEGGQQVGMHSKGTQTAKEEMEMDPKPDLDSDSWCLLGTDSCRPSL

[4] = biological target: T3, kinases (KINOMEscan panel) (Homo sapiens, UniProt Q96PY6); conditions: kinase NEK1; Published KINOMEscan; ref original PKIS2 published data; cited from earlier work
T3 sequence (Q96PY6 1-1258): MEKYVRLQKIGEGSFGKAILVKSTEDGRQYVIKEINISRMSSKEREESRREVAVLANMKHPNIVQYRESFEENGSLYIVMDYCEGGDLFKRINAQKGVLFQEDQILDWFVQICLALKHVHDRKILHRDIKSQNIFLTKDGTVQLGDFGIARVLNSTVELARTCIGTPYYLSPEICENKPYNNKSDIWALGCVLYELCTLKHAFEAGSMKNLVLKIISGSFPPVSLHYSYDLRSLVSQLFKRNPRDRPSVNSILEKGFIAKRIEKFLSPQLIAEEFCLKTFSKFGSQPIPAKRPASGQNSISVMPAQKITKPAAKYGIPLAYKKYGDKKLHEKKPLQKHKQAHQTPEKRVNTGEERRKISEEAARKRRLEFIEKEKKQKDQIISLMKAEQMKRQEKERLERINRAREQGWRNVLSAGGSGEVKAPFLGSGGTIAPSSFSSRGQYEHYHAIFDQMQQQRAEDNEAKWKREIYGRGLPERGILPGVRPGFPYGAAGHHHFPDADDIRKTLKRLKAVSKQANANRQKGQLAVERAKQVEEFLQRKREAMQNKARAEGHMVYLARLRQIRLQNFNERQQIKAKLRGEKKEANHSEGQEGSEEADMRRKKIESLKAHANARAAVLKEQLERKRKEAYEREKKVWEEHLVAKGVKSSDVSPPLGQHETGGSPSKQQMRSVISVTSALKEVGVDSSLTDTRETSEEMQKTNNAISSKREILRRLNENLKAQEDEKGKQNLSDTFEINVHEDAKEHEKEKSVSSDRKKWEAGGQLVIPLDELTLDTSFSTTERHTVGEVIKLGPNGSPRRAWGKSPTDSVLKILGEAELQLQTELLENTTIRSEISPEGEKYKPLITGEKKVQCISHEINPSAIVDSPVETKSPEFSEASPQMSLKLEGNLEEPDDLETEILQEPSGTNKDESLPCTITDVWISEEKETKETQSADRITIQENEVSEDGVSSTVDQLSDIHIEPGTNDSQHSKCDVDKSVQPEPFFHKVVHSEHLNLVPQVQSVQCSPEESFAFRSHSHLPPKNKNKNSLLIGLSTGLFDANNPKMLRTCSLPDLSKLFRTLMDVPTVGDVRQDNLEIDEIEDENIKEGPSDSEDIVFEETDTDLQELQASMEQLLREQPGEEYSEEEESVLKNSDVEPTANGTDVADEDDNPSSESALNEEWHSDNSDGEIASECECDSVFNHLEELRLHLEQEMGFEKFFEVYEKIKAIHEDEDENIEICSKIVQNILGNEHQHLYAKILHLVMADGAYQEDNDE

Sequence of kinases (KINOMEscan panel) (Homo sapiens, UniProt P42685) (P42685 whole entry): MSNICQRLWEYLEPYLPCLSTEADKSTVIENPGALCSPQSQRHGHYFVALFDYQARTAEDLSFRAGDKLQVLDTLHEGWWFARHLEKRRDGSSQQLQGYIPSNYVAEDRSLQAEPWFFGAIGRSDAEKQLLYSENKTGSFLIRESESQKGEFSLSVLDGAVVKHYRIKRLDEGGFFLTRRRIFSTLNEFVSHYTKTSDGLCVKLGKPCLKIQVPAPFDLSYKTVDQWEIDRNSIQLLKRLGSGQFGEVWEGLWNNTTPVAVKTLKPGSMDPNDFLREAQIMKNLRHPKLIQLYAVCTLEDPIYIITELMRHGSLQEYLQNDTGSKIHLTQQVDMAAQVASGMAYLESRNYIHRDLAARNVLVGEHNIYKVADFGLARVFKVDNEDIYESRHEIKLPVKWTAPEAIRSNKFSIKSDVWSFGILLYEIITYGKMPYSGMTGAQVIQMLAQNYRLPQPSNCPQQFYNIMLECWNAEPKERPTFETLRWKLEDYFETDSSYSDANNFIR

## Cc1cccc(-c2nc(Nc3ccncc3)c3ccccc3n2)n1 [NK215]
[1]
  KINOMEscan FRK: 15
[2]
  KINOMEscan MAPKAPK5: 0
[3]
  KINOMEscan NEK9: 0
[4]
  KINOMEscan NEK1: 0
